# Test results reported in publication PMC7033278, “A Nonpeptide Oxytocin Receptor Agonist for a Durable Relief of Inflammatory Pain” (Scientific Reports, 2020).
# Like-named read-outs stand apart in the source and are kept apart here.
# Columns and labels:
# COX(2) = target: T1, COX(2) (Homo sapiens, UniProt P35354); assay: enzyme inhibition; format: biochemical
# T1 construct: Eurofins (contract assay)
# Description: (§1) In vitro profiling of LIT-001 was performed by Eurofins as described in the Eurofins SafetyScreen-Functional panel, 2018[31]. The hepatotoxicity of LIT-001 was studied with cryo-preserved mouse hepatocytes. After unfreezing (optiTHAW and optiINCUBATE media, Xenotech) and cell viability control, cells (2 × 10^6 cells/ml) were dispatched in 96 well microtiterplates. LIT-001 was added to reach a concentration 1 μM in the presence of 1 × 10^6 cells/mL in a volume of 100 μl/well. The incubation was stopped at 4, 20, 40, 80 and 120 min in adding 100 μl of acetonitrile at 0 °C. A positive control was treated in the same conditions. All samples were analyzed by UHPLC coupled to a mass spectrometer (Shimadzu LC-MS 8030).
# PDE4D2 = target: T2, PDE4D2 (Homo sapiens, UniProt Q08499); assay: enzyme inhibition; format: biochemical
# T2 construct: Eurofins (contract assay)
# T2 sequence (Q08499 303-809): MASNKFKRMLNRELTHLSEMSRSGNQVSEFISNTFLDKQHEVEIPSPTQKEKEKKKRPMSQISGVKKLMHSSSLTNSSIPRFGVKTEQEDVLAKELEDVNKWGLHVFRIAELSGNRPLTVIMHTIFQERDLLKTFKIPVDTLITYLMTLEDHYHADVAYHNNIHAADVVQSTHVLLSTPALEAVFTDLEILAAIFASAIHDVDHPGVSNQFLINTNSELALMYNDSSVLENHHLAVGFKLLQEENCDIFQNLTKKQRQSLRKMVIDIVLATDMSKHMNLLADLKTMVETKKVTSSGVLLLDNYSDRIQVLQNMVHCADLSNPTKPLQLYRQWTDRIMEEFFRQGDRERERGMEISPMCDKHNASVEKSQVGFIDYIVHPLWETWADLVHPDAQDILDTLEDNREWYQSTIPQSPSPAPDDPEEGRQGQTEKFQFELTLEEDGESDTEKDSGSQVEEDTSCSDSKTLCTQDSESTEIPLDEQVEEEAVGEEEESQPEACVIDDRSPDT
# Description: as §1
# human recombinant COX(1) = target: T3, human recombinant COX(1) (Homo sapiens, UniProt P23219); assay: enzyme inhibition; format: biochemical; conditions: range given for five enzymes together, below significance
# T3 construct: Eurofins (contract assay)
# T3 sequence (P23219 24-599): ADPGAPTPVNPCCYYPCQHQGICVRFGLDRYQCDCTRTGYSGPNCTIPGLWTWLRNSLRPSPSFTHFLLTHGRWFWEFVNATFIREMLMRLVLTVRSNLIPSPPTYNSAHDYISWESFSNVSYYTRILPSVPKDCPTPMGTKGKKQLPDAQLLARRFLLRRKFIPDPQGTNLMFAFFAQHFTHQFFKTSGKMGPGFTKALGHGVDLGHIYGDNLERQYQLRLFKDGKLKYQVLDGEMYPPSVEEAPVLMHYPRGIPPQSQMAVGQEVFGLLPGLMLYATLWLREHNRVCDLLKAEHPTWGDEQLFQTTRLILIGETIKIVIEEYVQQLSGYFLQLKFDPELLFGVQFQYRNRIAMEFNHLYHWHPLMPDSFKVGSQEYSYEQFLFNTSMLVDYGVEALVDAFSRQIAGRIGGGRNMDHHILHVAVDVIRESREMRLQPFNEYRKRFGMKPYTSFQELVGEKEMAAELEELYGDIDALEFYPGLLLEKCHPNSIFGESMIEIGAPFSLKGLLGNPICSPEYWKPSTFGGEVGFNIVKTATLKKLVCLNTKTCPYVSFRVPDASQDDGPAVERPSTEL
# Description: as §1
# [1] = system: CFA-induced thermal heat hyperalgesia; assay: thermal heat sensitivity, Plantar test (Hargreaves), CFA model; format: in vivo; conditions: rat
# Description: LIT-001 was prepared as described in Frantz et al.[20]. For in vivo biological assays, it was dissolved in carboxymethyl cellulose (CMC, 1%) - NaCl (0.9%) and administered at the dose of 10 mg/kg. LIT-001 or vehicle were injected intraperitoneally (i.p.), in a volume of 10 ml/kg[20], 24 h after the induction of the CFA-induced painful inflammatory sensitization. To confirm the implication of the OTR we injected (i.p.) also L-368,899 (Sigma, St. Louis, MO) (1 mg/kg), an OTR antagonist, in combination with LIT-001 in another group of rats[11].
# Male Wistar rats (300 g; JANVIER LABS, Le Genest St. Isle, France) were used for this study. They were housed by groups of 3 or 4 under standard conditions (room temperature, 22 °C; 12/12 h light/dark cycle) with ad libitum access to food and water and behavioral enrichment. All animals were manipulated and habituated to the tests and to the room for at least 2 weeks. All behavioral tests were done during the light period (i.e., between 7:00 and 19:00). All the procedures were performed in accordance with European committee council Direction, authorization from French Department of Agriculture and from the regional ethic committee.
# To test the animal heat sensitivity, we used the Plantar test with Hargreaves method (Ugo Basile, Comerio, Italy) to compare the response of each hindpaw[33] when we tested healthy animals (unilateral intraplantar NaCl injection) and animals having received unilateral intraplantar CFA (Freund’s Complete Adjuvant) injection. The habituated rat is placed in a small box and we wait until the animal is calmed then we exposed the hindpaw to a radiant heat, the latency time of paw withdrawal was measured.
# In order to induce a peripheral inflammation, 100 μl of complete Freund adjuvant (CFA; Sigma, St. Louis, MO), was injected in the right hindpaw of the rat. All CFA injections were performed under light isoflurane anesthesia (3%).
# [2] = distribution and clearance after i.p. injection, LC-MS/MS; format: in vivo; conditions: ip, rat, 10 mg/kg i.p.
# Description: Brains from rat injected with 10 mg/kg (18.8 µmol/kg) i.p. of LIT-001 were homogenized with an Ultra Turrax instrument (Ika, Staufen, Germany) in 2 ml of H2O (Figs. 4, S4). The homogenates were then sonicated (3 times 10 s, 100 W) with a Vibra Cell apparatus (Sonics, Newtown, U.S.A.). Protein concentrations were determined using the Bradford method (Protein Assay, Bio-Rad, Marne-la-Coquette, France). 400 µl was mixed with 4 ml of ice cold acetonitrile (ACN) and let 30 min on ice. Samples were then centrifuged (20,000 × g, 30 min) at 4 °C. Supernatants were dried under vacuum and resuspended in 400 µl ACN 10%/H2O 89.9%/formic acid 0.1% (v/v/v) and a volume of 5 µl was injected on the LC-MS/MS. For CSF, plasma and urine, 200 µl of fluids were mixed with 1 ml of ice cold acetonitrile (ACN) and let 30 min on ice. Samples were then centrifuged (20,000 × g, 30 min) at 4 °C. Supernatants were dried under vacuum and suspended in 200 µl ACN 10%/H2O 89.9%/formic acid 0.1% (v/v/v) and a volume of 5 µl was injected on the LC-MS/MS.
# Analyses were performed on a Dionex Ultimate 3000 HPLC system (Thermo Scientific, San Jose, USA) coupled with a triple quadrupole Endura mass spectrometer (Thermo Scientific). The system was controlled by Xcalibur v.2.0 software (Thermo Electron). Samples were loaded onto an Accucore C18 RP-MS column (ref 17126–151030; 150 × 1 mm 2.6 μm, Thermo Scientific) heated at 40 °C. The presence of LIT-001 was studied using the multiple reaction monitoring mode (MRM). Elution was performed at a flow rate of 150 µl/min by applying a linear gradient of mobile phases A/B. Mobile phase A corresponded to ACN 1%/H2O 98.9%/formic acid 0.1% (v/v/v), whereas mobile phase B was ACN 99.9%/formic acid 0.1% (v/v). The gradient used is detailed in Fig. S4. […] Desolvation (nitrogen) sheath gas was set to 27 Arb and Aux gas was set to 9 Arb. The ion transfer tube was heated at 312 °C. Q1 and Q2 resolutions were set at 0.7 FWHM, whereas collision gas (CID, argon) was set to 2 mTorr. Identification of the compounds was based on precursor ion, selective fragment ions and retention times obtained for LIT-001. Selection of the monitored transitions and optimization of collision energy and RF Lens parameters were manually determined (see Fig. S4 for details). Qualification and quantification were performed in MRM mode. Quantification was obtained using Quan Browser software (Thermo Scientific). For tissues and fluids, LIT-001 was quantified using calibration curves of external standards of LIT-001 (125 fmol to 100 pmol/injection; Fig. S4) added to urine, plasma or brain extracts of naive rat and submitted to the same procedure described for respective fluids and tissue recovery. The amounts of LIT-001 measured in samples fit within the standard curve limits, with typical analytical ranges (the range of amounts that can be accurately quantified) from […].
# [3] = system: V2 vasopressin receptor (V2R); parameters: method as in PMID 30199637; conditions: cited from earlier work
# [4] = i.p., D1 after CFA, measured 1 hour after injection
# [5] = CSF, read-out: concentration in CSF
# [6] = brain, read-out: concentration in brain
# [7] = plasma, read-out: concentration in plasma
# [8] = urine, read-out: concentration in urine
# T1 sequence (P35354 18-604): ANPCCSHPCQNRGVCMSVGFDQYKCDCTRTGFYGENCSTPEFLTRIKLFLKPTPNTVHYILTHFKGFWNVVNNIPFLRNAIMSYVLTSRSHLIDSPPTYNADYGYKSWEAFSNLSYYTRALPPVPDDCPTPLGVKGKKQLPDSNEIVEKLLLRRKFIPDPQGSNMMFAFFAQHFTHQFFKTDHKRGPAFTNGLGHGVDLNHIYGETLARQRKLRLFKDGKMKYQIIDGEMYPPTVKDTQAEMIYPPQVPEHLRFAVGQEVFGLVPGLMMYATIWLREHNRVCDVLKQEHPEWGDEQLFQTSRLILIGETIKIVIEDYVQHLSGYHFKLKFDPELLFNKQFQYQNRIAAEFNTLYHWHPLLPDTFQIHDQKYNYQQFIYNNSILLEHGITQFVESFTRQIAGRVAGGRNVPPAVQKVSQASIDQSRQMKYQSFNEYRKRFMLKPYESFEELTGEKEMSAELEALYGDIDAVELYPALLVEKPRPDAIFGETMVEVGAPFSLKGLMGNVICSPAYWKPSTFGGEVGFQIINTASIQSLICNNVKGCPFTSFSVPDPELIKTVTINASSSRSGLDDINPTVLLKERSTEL
smiles,measurement,setting,value
Cc1cc(C(=O)N2Cc3cnn(C)c3Nc3ccccc32)ccc1CNC(=O)N1CCC[C@H]1C(=S)N(C)C [LIT-001],inhibition at 5 µM,COX(2),24.6%
same,inhibition at 5 µM,PDE4D2,23.1%
same,inhibition at 5 µM,human recombinant COX(1),6.4 to 9.5%
same,"thermal heat latency, NaCl-injected hindpaw (control animals)",[1]; 10 mg/kg i.p.,8.14 ± 0.48 s
same,"thermal heat latency, hindpaw contralateral to CFA (cCFA)",[1]; 10 mg/kg i.p.,11 ± 0.53 s
same,"relative-to-baseline AUC, thermal heat latency, CFA-injected hindpaw",[1]; i.p. LIT-001 10 mg/kg at D1 after CFA,135 ± 9%
same,"thermal heat withdrawal latency, CFA-injected hindpaw","[1]; i.p. LIT-001 10 mg/kg at D1 after CFA, 3 h post i.p.",5.83 ± 0.65 s
same,"dose at which analgesic effect reaches a plateau, thermal heat hypersensitivity",[1]; [4],10 mg/kg
same,"dose of first analgesic action, thermal heat hypersensitivity",[1]; [4],5 mg/kg
same,concentration at 60 min,[2]; [5],7.4 ± 4.4 nM
same,concentration at 300 min,[2]; [5],1.5 ± 1.1 nM
same,concentration at 60 min,[2]; [6],1.6 ± 0.8 nM
same,concentration at 300 min,[2]; [6],0.6 ± 0.4 nM
same,concentration at 30 min,"[2]; plasma, 30 min (highest)",650 ± 200 nM
same,concentration at 60 min,[2]; [7],626 ± 112 nM
same,concentration at 300 min,[2]; [7],95.2 ± 36.5 nM
same,concentration at 60 min,[2]; [8],52500 ± 14200 nM
same,concentration at 300 min,[2]; [8],189000 ± 8480 nM
same,V2R agonism in functional assays,[3],potent V2R agonist
